Entries after “also recorded” stand apart in the source; their conditions may differ.

The source of these data is patent US7745393B2, “Minimalist bZIP proteins and uses thereof” (priority 2005, dated 2010).

Series [1] addresses E-box. Particulars: high-salt conditions, in vitro; cited from earlier work.
A further series deals with E-box target, 5′-CACGTG. Description: yeast one-hybrid his3 reporter assay (colony growth on SD/-His/-Leu with 3-AT). The class given is cell-based, Saccharomyces cerevisiae. The note with it: for his3 assay binding/colony growth: 30° C.; for binding to E-box / colony growth in yeast one-hybrid assay: 3-AT concentration not stated; for his3: positive/negative colony growth in yeast cells on plates. Details: key to his3: +: positive; −: negative. The source says: A reporter strain was constructed such that the E-box target, 5′-CACGTG, resides upstream of the HIS3 reporter gene. The bHLH/bZIP hybrid was fused to the GAL4 transcriptional activation domain so that if a hybrid binds the E-box, the HIS3 protein will be expressed, thus allowing yeast to survive under conditions of histidine auxotrophy. Four tandem copies of the E-box (as shown in Table 9) were cloned into the pHISi-1 integrating reporter vector (Matchmaker One-Hybrid System, Clontech). After insertion of the E-box insert, the pHISi-1 vector was linearized and incorporated into the yeast genome by homologous recombination to generate Saccharomyces cerevisiae YM4271[pHISi-1/E-box]. To assess background due to the reporter, 3-aminotriazole (3-AT) was used as a competitive inhibitor of the HIS3 protein. Because it is possible that the reporter may be activated by endogenous factors, YM4271[pHISi-1/E-box] was subjected to titration with varying amounts of 3-AT to measure the concentration of 3-AT sufficient for suppression of background growth.
Transformation of the yeast cells was performed by electroporation. Following electroporation, cells were plated on minimal selective medium lacking leucine and histidine with the appropriate amount of 3-AT to suppress background.
(§1) A modified yeast one-hybrid system (Y1H) (Wang MM and Reed RR. 1993, Nature, 364, 121) was used to examine the E-box binding activity of the hybrids in vivo. Two S. cerevisiae reporter strains were constructed: four tandem copies of the E-box were cloned upstream of either the his3 or LacZ reporters. In the his3 assay, the His3 protein is expressed upon binding of our hybrids at E-box, allowing yeast to survive under histidine auxotrophy (FIG. 6). Surviving colonies are visualized on plates with media lacking histidine and in the presence of 3-aminotriazole (3-AT), a competitive inhibitor of His3 that reduces background growth. Yeast was plated on 10-60 mM 3-AT as a qualitative test of binding strength to E-box. Hybrids were also tested by two assays based on the LacZ reporter, which encodes β-galactosidase. (Serebriiskii, I. G. and Golemis, E. A. 2000 Anal. Biochem. 285, 1. The qualitative colony-lift filter assay uses X-gal as substrate for calorimetric visualization of protein-DNA binding (FIG. 7). Positives display vivid blue color. The ortho-nitrophenyl-β-galactoside (ONPG) liquid assay is quantitative (FIG. 8). However, this assay is not sensitive enough to quantify weak interactions accurately, (Mökli, N. and Auerbach, D. 2004 BioTechniques 36, 872) so the far more sensitive colony-lift assay is also typically performed.
In general terms: A reporter such as luciferase makes a cellular process visible.

Series [2] relates to E-box. Nature of the series: LacZ colony-lift filter assay (X-gal). The class given is cell-based, S. cerevisiae. Details: key to Colony-lift: +: blue; −: white. Particulars: for Colony-lift: LacZ-based X-gal colony-lift filter assay, blue/white screen; for colony-lift filter assay binding (color): X-gal substrate.
Excerpt: as §1

The subject of series [3] is E-box. Description: LacZ ONPG liquid assay (β-galactosidase). The class given is cell-based, S. cerevisiae. Particulars: for β-galactosidase activity: ONPG assay, FIG. 8, averages of nine to twelve measurements.
Excerpt: The measurement of binding of the minimalist bZIP proteins to the target DNA sequence is a LacZ-based quantitative assay using ortho-nitrophenyl-beta-galactoside as calorimetric substrate (ONPG). Minimalist bZIP proteins with ONPG values exceeding 10 beta-galactosidase units are considered to be good binders to the target DNA sequence. Minimalist bZIP proteins with ONPG values below 10 beta-galactosidase units are ideal for selection and evolution,
as §1

For the molecule “Arnt bHLH: Arnt bHLH alone (56 amino acids), literature, Huffman et al. 2001”, the Kd on E-box [1] is 56.2 ± 11.7 nM.
With “Max-C/EBP: Max basic region, RIR linker, C/EBP leucine zipper; SEQ ID NO. 52, same sequence as SEQ ID No. 1 (ADKRAHHNALERKRRDHIKDSFHSRIRLEQKVLELTSDNDRLRKRVEQLSRELDTL; fusion protein)”, the “his3 assay binding/colony growth” value with E-box target, 5′-CACGTG (10 mM 3-AT) is “no binding”. For the same molecule, in the series with E-box target, 5′-CACGTG (10 mM 3-AT, listed as Max/C-EBP), the “his3 assay binding/colony growth” value is recorded as “Binding undetectable”. For the same molecule, in the series with E-box target, 5′-CACGTG, the “binding to E-box / colony growth in yeast one-hybrid assay” value is given as “undetectable” and the his3 result is recorded as “−”. Moreover, in the series with E-box [2], the Colony-lift result is on record as “−” and the “colony-lift filter assay binding (color)” value is listed as “no binding (clear)”. Further, in the series with E-box [3] (Table 11), the ONPG is 2.2 ± 0.2 β-galactosidase units.
For “native Max bHLHZ: native Max bHLHZ (residues 22-113, 92 amino acids), positive control”, the “his3 assay binding/colony growth” value in the series with E-box target, 5′-CACGTG (20 mM 3-AT) was “strong binding/colony growth”; in the series with E-box target, 5′-CACGTG (60 mM 3-AT, listed as Max bHLHZ) it was “good colony growth”; in the series with E-box target, 5′-CACGTG (60 mM 3-AT, listed as Native Max bHLHZ), “strong binding/colony growth”. In the series on E-box target, 5′-CACGTG, the his3 result is “+”. Also, the Colony-lift result in the series on E-box [2] is on record as “+”. Further, the “colony-lift filter assay binding (color)” value with E-box [2] (listed as Max bHLHZ) was “intense blue color; also recorded: positive binding (dark blue)”; in the series with E-box [2] (listed as Native Max bHLHZ), “positive binding (dark blue)”. The molecule further displayed a β-galactosidase activity in the series on E-box [3] of 26.4±7.7. Further, the ONPG with E-box [3] (Table 11) is given as 26.4 ± 7.7 β-galactosidase units; with E-box [3] (Table 12) it was 26.41 ± 7.73.

B1: Arnt-C/EBP: Arnt basic region and a portion of Helix 1 directly fused to the C/EBP zipper (protein)
chain: DQMSNDKERFARENHSEIERRRRNKMTAYITELSRIRLEQKVLELTSDNDRLRKRVEQLSRELDTL
modifications: Arnt-C/EBP
notes: Arnt basic region and a portion of Helix 1 directly fused to the C/EBP zipper
B1: the “binding to E-box / colony growth in yeast one-hybrid assay” value with E-box target, 5′-CACGTG is listed as “no colony growth”. Also, in the series on E-box [2], the “colony-lift filter assay binding (color)” value was “extremely pale color; also recorded: no binding (clear)”. For the same molecule, in the series on E-box [3], the β-galactosidase activity is 2.9±0.3.

B2: Arnt1-C/EBP: Arnt basic region, RIR linker, C/EBP leucine zipper; SEQ ID No. 7 (protein)
chain: KFLRCDDDQMSNDKERFARENHSEIERRRRNKMTAYITERIRLEQKVLELTSDNDRLRKRVEQLSRELDTL
modifications: fusion protein
B2: the “his3 assay binding/colony growth” value in the series on E-box target, 5′-CACGTG (10 mM 3-AT) is reported as “able to bind to the E-box target DNA sequence”.

A word on the Kd: it is the free concentration of one partner at which half of the binding sites on the other are occupied at equilibrium, for simple one-to-one binding.
